Experimental data from patent US12655142B2 (Merck Patent GmbH, priority 2019, dated 2026).

How the values were obtained:
c-Kit(V654A) = molecular target: T1, c-Kit(V654A) (Homo sapiens, UniProt P10721, V654A); assay: c-Kit(V654A) assay (33P-ATP filter binding kinase assay); type: biochemical; conditions: recombinant human c-Kit aa 544-end V654A, ATP 200 μM
T1 construct: recombinant human c-Kit, amino acids 544-end containing the V654A mutation; GST (N)
Procedure: c-Kit(V654A) (N-terminal GST-tagged, recombinant human c-Kit, amino acids 544-end containing the V654A mutation) is incubated with 8 mM MOPS pH 7.0, 0.2 mM EDTA, 250 μM GGMEDIYEFMGGKKK, 10 mM MgAcetate and [gamma-33P-ATP] (specific activity approx. 500 cpm/pmol, concentration 200 μM). The reaction is initiated by the addition of the MgATP mix. After incubation for 40 minutes at room temperature, the reaction is stopped by the addition of 3% phosphoric acid solution. 10 μL of the reaction is then spotted onto a P30 filtermat and washed three times for 5 minutes in 75 mM phosphoric acid and once in methanol prior to drying and scintillation counting.

[1] = molecular target: T2, GIST430/654 cell line expressing mutated constitutively active cKIT receptor tyrosine kinase (Δ560-576 deletion and V654A point mutation) (Homo sapiens, UniProt P10721, DEL560-576/V654A); assay: Cellular cKIT autophosphorylation (phospho-Y307-cKIT, Luminex bead assay) in GIST430/654 cells; type: cell-based; conditions: compounds 45 min, read-out: GIST 430/654 IC50
T2 construct: endogenous in cells; host or cells: GIST430/654 cells
T2 sequence (P10721 with tags, fused parts or gaps DEL560-576/V654A): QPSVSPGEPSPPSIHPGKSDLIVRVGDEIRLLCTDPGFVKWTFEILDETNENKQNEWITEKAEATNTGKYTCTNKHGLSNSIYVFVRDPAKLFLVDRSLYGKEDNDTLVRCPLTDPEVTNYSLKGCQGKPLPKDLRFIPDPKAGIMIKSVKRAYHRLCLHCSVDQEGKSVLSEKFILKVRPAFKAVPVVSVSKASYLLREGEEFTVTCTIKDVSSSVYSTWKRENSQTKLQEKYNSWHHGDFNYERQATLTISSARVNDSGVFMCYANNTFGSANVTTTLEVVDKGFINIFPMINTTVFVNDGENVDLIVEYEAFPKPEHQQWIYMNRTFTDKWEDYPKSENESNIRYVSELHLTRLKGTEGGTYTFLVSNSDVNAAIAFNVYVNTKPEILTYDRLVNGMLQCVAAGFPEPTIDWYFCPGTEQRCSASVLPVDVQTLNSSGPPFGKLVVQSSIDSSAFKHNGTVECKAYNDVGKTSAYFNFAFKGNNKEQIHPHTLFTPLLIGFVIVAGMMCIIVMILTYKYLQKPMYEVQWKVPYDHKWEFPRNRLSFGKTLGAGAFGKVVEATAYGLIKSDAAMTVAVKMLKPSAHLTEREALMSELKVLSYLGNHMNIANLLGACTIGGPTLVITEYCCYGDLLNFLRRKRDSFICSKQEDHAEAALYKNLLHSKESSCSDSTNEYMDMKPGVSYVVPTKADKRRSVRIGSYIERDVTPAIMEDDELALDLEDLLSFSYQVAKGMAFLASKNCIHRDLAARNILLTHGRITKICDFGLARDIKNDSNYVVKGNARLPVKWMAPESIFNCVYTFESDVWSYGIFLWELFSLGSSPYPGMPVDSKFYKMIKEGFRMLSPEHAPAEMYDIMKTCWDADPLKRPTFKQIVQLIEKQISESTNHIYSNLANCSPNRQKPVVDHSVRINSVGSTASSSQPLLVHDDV
Procedure: Assay Principle for Cellular Testing of cKIT Mutant Inhibitors
The GIST430 cell line expressing constitutive active cKIT receptor tyrosine kinase (Δ560-576 deletion) and the Imatinib resistant GIST430/654 cell line expressing mutated constitutively active cKIT receptor tyrosine kinase (Δ560-576 deletion and V654A point mutation) were employed for assessing cellular potency of compounds. Cellular activity of mutant cKIT was determined by the degree of cKIT autophosphorylation at tyrosine 307 using a Luminex-based bead assay. GIST430 cells were plated with 22,000 cells per well of a 96-well plate in 100 μl medium (85% IMDM/15% FCS) and GIST430/654 cells were plated with 25,000 cells per well of a 96-well plate in 100 μl medium (85% IMDM/15% FCS supplemented with 100 nM Imatinib). At the following day compounds were added in a serial dilution for 45 min. Then, cells were lysed with 90 μl lysis buffer (20 mM Hepes pH 7.5, 200 mM NaCl, 1.5 mM MgCl2×6H2O, 0.4 mM EDTA, 1% Triton-X-100, 1% Phosphatase-Inhibitor II, 20 mM β-Glycerolphosphat, 0.1% Protease-Inhibitor Cocktail III, 0.01% Benzonase) and lysates were cleared by centrifugation through a 96-well filter plate (0.65 μm). Samples were incubated with Luminex-beads which were coupled with an anti-total cKIT antibody overnight at 4° C. under gentle agitation. For detection of phospho-Y307-cKIT a phosphospecific antibody and a species-specific PE-labeled secondary antibody were added. The amount of phospho-Y307-cKIT was determined in a Luminex 200 instrument measuring 100 events per well within 60 seconds.
Counts from samples treated with compounds were calculated as percent of control from solvent treated (0.3% DMSO) samples. Dose-response curves were fitted and IC50 values were determined using Genedata Screener software.

T1 sequence (P10721 544-976 V654A): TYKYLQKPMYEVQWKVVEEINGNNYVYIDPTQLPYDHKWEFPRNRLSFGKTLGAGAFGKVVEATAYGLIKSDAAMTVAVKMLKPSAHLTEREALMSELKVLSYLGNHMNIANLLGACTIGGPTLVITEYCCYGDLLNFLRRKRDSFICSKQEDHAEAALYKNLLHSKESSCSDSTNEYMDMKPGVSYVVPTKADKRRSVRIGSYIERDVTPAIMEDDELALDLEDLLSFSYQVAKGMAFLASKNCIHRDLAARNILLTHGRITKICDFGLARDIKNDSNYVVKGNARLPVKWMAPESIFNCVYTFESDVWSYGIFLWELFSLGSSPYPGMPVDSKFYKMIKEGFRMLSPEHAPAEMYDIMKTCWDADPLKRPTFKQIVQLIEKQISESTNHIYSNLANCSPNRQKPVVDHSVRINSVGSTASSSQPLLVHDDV

IC50 (c-Kit(V654A)) [nM]	IC50 [1] [nM]	Structure (SMILES)
5.5	2600	COc1ccn2c(-c3cc(NCc4ccc(-c5ccccc5)cc4)ncn3)cnc2c1 [A3, N-({[1,1′-biphenyl]-4-yl}methyl)-6-{7-methoxyimidazo[1,2-a]pyridin-3-yl}pyrimidin-4-amine]
13	1000	Cn1cc(-c2ccc(CNc3cc(-c4cnc5cc(C(F)(F)F)ccn45)ncn3)cc2)cn1 [A10, N-{[4-(1-methyl-1H-pyrazol-4-yl)phenyl]methyl}-6-[7-(trifluoromethyl)imidazo[1,2-a]pyridin-3-yl]pyrimidin-4-amine]
100	2300	COc1ccn2c(-c3cc(NCc4ccc(C(=O)N(C)C)cc4)ncn3)cnc2c1 [A13, 4-{[(6-{7-methoxyimidazo[1,2-a]pyridin-3-yl}pyrimidin-4-yl)amino]methyl}-N,N-dimethylbenzamide]
5.5	200	Cn1ccc(-c2ccc(CNc3cc(-c4cnc5ccccn45)ncn3)cc2)n1 [A14, (6-Imidazo[1,2-a]24yridine-3-yl-pyrimidin-4-yl)-[4-(1-methyl-1H-pyrazol-3-yl)-benzyl]-amine]
55	650	COc1ccn2c(-c3cc(NCc4ccc(-c5cn(C)cn5)cc4)ncn3)cnc2c1 [A20, [6-(7-methoxy-imidazo[1,2-a]pyridin-3-yl)-pyrimidin-4-yl]-[4-(1-methyl-1H-imidazol-4-yl)-benzyl]-amine]
110	–	COc1ccn2c(-c3cc(NCc4ccc(-c5cnn(CCN6CCOCC6)c5)cc4)ncn3)cnc2c1 [A22, [6-(7-methoxy-imidazo[1,2-a]pyridin-3-yl)-pyrimidin-4-yl]-{4-[1-(2-morpholin-4-yl-ethyl)-1H-pyrazol-4-yl]-benzyl}-amine]
6.2	66	CCn1cc(-c2ccc(CNc3cc(-c4cnc5cc(OC)ccn45)ncn3)cc2)cn1 [A23, [4-(1-ethyl-1H-pyrazol-4-yl)-benzyl]-[6-(7-methoxy-imidazo[1,2-a]pyridin-3-yl)-pyrimidin-4-yl]-amine]
160	–	COc1ccn2c(-c3cc(NCc4ccc(-c5cnn(CCN6CCCC6)c5)cc4)ncn3)cnc2c1 [A24, [6-(7-methoxy-imidazo[1,2-a]pyridin-3-yl)-pyrimidin-4-yl]-{4-[1-(2-pyrrolidin-1-yl-ethyl)-1H-pyrazol-4-yl]-benzyl}-amine]
26	210	COc1ccn2c(-c3cc(NCc4ccc(-c5cn(C)nc5C)cc4)ncn3)cnc2c1 [A25, [4-(1,3-dimethyl-1H-pyrazol-4-yl)-benzyl]-[6-(7-methoxy-imidazo[1,2-a]pyridin-3-yl)-pyrimidin-4-yl]-amine]
63	–	COc1ccn2c(-c3cc(NCc4ccc(-n5cnc6ccccc65)cc4)ncn3)cnc2c1 [A27, N-{[4-(1H-1,3-benzodiazol-1-yl)phenyl]methyl}-6-{7-methoxyimidazo[1,2-a]pyridin-3-yl}pyrimidin-4-amine]
35	1400	COc1ccn2c(-c3cc(NCc4cccc(-c5cnn(C)c5)c4)ncn3)cnc2c1 [A28, [6-(7-methoxy-imidazo[1,2-a]pyridin-3-yl)-pyrimidin-4-yl]-[3-(1-methyl-1H-pyrazol-4-yl)-benzyl]-amine]
15	120	COc1ccn2c(-c3cc(NCc4ccc(-c5cnn(C)c5)c(F)c4)ncn3)cnc2c1 [A29, N-{[3-fluoro-4-(1-methyl-1H-pyrazol-4-yl)phenyl]methyl}-6-{7-methoxyimidazo[1,2-a]pyridin-3-yl}pyrimidin-4-amine]
260	–	COc1ccn2c(-c3cc(NCc4ccc(-c5cnc(C)nc5N)cc4)ncn3)cnc2c1 [A43, 5-(4-{[(6-{7-methoxyimidazo[1,2-a]pyridin-3-yl}pyrimidin-4-yl)amino]methyl}phenyl)-2-methylpyrimidin-4-amine]
130	–	COc1ccn2c(-c3cc(NCc4ccc(-c5cnn(C)n5)nc4)ncn3)cnc2c1 [A45, [6-(7-methoxy-imidazo[1,2-a]pyridin-3-yl)-pyrimidin-4-yl]-[6-(2-methyl-2H-[1,2,3]triazol-4-yl)-pyridin-3-ylmethyl]-amine]
120	–	COCC(COC)Oc1ccn2c(-c3cc(NCc4ccc(-c5cnn(C)c5)cc4)ncn3)cnc2c1 [A54, {6-[7-(2-methoxy-1-methoxymethyl-ethoxy)-imidazo[1,2-a]pyridin-3-yl]-pyrimidin-4-yl}-[4-(1-methyl-1H-pyrazol-4-yl)-benzyl]-amine]
110	–	Cn1cc(-c2ccc(CNc3cc(-c4cnc5cc(OCc6nccn6C)ccn45)ncn3)cc2)nn1 [A110, {6-[7-(1-methyl-1H-imidazol-2-ylmethoxy)-imidazo[1,2-a]pyridin-3-yl]-pyrimidin-4-yl}-[4-(1-methyl-1H-[1,2,3]triazol-4-yl)-benzyl]-amine]
88	–	COc1ccn2c(-c3cc(NCc4ccc(-c5cnn(CC6CNC6)c5)cc4)ncn3)cnc2c1 [A159, N-[(4-{1-[(azetidin-3-yl)methyl]-1H-pyrazol-4-yl}phenyl)methyl]-6-{7-methoxyimidazo[1,2-a]pyridin-3-yl}pyrimidin-4-amine]
58	–	COc1ccn2c(-c3cc(OC(C)c4ccc(-c5cnn(C)c5)cc4)ncn3)cnc2c1 (centres unmarked) [A171, 7-methoxy-3-(6-{1-[4-(1-methyl-1H-pyrazol-4-yl)-phenyl]-ethoxy}-pyrimidin-4-yl)-imidazo[1,2-a]pyridine]
260	–	COc1ccn2c(-c3cc(NCc4ccc(-c5cnc(CO)n5C)cc4)ncn3)cnc2c1 [A174, [5-(4-{[6-(7-Methoxy-imidazo[1,2-a]pyridin-3-yl)-pyrimidin-4-ylamino]-methyl}-phenyl)-1-methyl-1H-imidazol-2-yl]-methanol]
8.7	–	Cn1cc(-c2ccc(CNc3cc(-c4cnc5cc(OCCN6CCC67COC7)ccn45)ncn3)cc2)cn1 [A207, [4-(1-methyl-1H-pyrazol-4-yl)-benzyl]-(6-{7-[2-(6-oxa-1-aza-spiro[3.3]hept-1-yl)-ethoxy]-imidazo[1,2-a]pyridin-3-yl}-pyrimidin-4-yl)-amine]
7.3	–	Cn1cc(-c2ccc(CNc3cc(-c4cnc5cc(OCCCN6CC(F)C6)ccn45)ncn3)cc2)cn1 [A240, (6-{7-[3-(3-fluoro-azetidin-1-yl)-propoxy]-imidazo[1,2-a]pyridin-3-yl}-pyrimidin-4-yl)-[4-(1-methyl-1H-pyrazol-4-yl)-benzyl]-amine]
6.5	–	Cn1cc(-c2ccc(CNc3cc(-c4cnc5cc(OCCCN6CC[S+]([O-])CC6)ccn45)ncn3)cc2)cn1 [A241, [4-(1-methyl-1H-pyrazol-4-yl)-benzyl]-(6-{7-[3-(1-oxo-1|4-thiomorpholin-4-yl)-propoxy]-imidazo[1,2-a]pyridin-3-yl}-pyrimidin-4-yl)-amine]
21	–	Cn1ncc(-c2ccc(CNc3cc(-c4cnc5cc(N6CCN(C7COC7)CC6)ccn45)ncn3)cc2)n1 [A244, [4-(2-methyl-2H-[1,2,3]triazol-4-yl)-benzyl]-{6-[7-(4-oxetan-3-yl-piperazin-1-yl)-imidazo[1,2-a]pyridin-3-yl]-pyrimidin-4-yl}-amine]
6.5	–	Cn1ncc(-c2ccc(CNc3cc(-c4cnc5cc(OCCCN6CCN(C7CC7)CC6)ccn45)ncn3)cc2)n1 [A253, (6-{7-[3-(4-cyclopropyl-piperazin-1-yl)-propoxy]-imidazo[1,2-a]pyridin-3-yl}-pyrimidin-4-yl)-[4-(2-methyl-2H-[1,2,3]triazol-4-yl)-benzyl]-amine]
24	–	Cn1cc(-c2ccc(CNc3cc(-c4cnc5cc(OCC6CN(CC(F)(F)F)C6)ccn45)ncn3)cc2)cn1 [A254, N-{[4-(1-methyl-1H-pyrazol-4-yl)phenyl]methyl}-6-(7-{[1-(2,2,2-trifluoroethyl)azetidin-3-yl]methoxy}imidazo[1,2-a]pyridin-3-yl)pyrimidin-4-amine]
12	–	CN1CC(F)(COc2ccn3c(-c4cc(NCc5ccc(-c6cnn(C)c6)cc5)ncn4)cnc3c2)C1 [A256, 6-{7-[(3-fluoro-1-methylazetidin-3-yl)methoxy]imidazo[1,2-a]pyridin-3-yl}-N-{[4-(1-methyl-1H-pyrazol-4-yl)phenyl]methyl}pyrimidin-4-amine]
